In paper PMC7033278, “A Nonpeptide Oxytocin Receptor Agonist for a Durable Relief of Inflammatory Pain” (Scientific Reports, 2020):

Assays:
CYP 2D6 = target: T1, CYP 2D6 (Homo sapiens, UniProt P10635); test: cytochrome inhibition, human liver microsomes; assay type: in vitro ADME; settings: 0.03-100 μM
T1 construct: phosphate buffer containing human liver microsomes (0.2 mg/ml); from tissue; host or cells: human liver microsomes
Method: (§1) Cytochrome inhibition by LIT-001 was studied as follows. A stock solution of LIT-001 at 10 mM in DMSO was prepared and stored at 4 °C. Solutions containing the cytochrome substrates and control inhibitors or LIT-001 were prepared. 2 μl of substrate-inhibitor solutions were mixed with 176 μl of phosphate buffer containing human liver microsomes (0.2 mg/ml), 1 mM of NADPH and 3 mM of MgCl2. Height concentrations were tested: 0.03; 0.1; 0.3; 1; 3; 10; 30 and 100 μM. The reaction was initiated by addition of the co-factor after 5 min of incubation at 37 °C. After one hour of incubation, 200 μl of acetonitrile were added to stop enzymatic reactions and solubilize the products. Different control inhibitors were used and supernatants were analyzed by LC-MS/MS (UHPLC separation; Shimadzu LC-MS 8030). • Furafylline (CYP 1A2 inhibitor): 0.03; 0.1; 0.3; 1; 3; 10; 30 and 100 μM • Sulfaphenazole (CYP 2C9 inhibitor): 0.03; 0.1; 0.3; 1; 3; 10; 30 and 100 μM • Tranylcypromine (CYP 2C19 inhibitor): 0.03; 0.1; 0.3; 1; 3; 10; 30 and 100 μM • Quinidine (CYP […] inhibitor): 0.003; 0.01; 0.1; 0.5; 1; 5; 10 and 50 μM • Kétoconazole (CYP 3A4 inhibitor): 0.003; 0.01; 0.1; 0.5; 1; 5; 10 and 50 μM

CYP 3A4 = target: T2, CYP 3A4 (Homo sapiens, UniProt P08684); test: cytochrome inhibition, human liver microsomes; assay type: in vitro ADME
T2 construct: phosphate buffer containing human liver microsomes (0.2 mg/ml); from tissue; host or cells: human liver microsomes
T2 sequence (P08684 whole entry): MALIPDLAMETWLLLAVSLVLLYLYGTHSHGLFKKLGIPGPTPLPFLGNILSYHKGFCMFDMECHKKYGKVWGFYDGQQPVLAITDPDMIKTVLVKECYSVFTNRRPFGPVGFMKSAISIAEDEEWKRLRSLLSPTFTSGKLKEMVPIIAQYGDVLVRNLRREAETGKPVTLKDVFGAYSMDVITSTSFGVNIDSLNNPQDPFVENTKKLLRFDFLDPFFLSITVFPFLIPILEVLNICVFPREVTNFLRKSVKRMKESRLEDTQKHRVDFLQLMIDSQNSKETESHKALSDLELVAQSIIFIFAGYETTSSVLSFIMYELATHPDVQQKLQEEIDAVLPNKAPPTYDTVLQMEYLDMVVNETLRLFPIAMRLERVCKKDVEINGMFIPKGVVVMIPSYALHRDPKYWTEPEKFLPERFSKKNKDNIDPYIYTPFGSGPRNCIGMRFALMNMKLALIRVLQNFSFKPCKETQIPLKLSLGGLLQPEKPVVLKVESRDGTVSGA
Method: as §1

CYP 2C19 = target: T3, CYP 2C19 (Homo sapiens, UniProt P33261); test: cytochrome inhibition, human liver microsomes; assay type: in vitro ADME
T3 construct: phosphate buffer containing human liver microsomes (0.2 mg/ml); from tissue; host or cells: human liver microsomes
Method: as §1

CYP 2C9 = target: T4, CYP 2C9 (Homo sapiens, UniProt P11712); test: cytochrome inhibition, human liver microsomes; assay type: in vitro ADME; settings: 0.03-100 μM
T4 construct: phosphate buffer containing human liver microsomes (0.2 mg/ml); from tissue; host or cells: human liver microsomes
T4 sequence (P11712 whole entry): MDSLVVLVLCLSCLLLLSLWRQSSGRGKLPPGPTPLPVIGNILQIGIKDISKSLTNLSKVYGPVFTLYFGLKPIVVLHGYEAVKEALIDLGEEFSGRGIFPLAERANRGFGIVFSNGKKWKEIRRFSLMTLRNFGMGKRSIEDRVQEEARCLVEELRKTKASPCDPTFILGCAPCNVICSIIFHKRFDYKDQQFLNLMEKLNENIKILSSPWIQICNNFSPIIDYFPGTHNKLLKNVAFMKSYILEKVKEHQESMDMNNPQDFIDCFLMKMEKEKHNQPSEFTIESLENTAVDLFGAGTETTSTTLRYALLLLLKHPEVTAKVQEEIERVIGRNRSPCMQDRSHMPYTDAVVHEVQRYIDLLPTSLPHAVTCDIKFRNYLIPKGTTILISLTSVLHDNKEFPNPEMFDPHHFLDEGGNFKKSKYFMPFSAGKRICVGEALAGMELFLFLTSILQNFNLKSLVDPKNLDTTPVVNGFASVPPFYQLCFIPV
Method: as §1

CYP 1A2 = target: T5, CYP 1A2 (Homo sapiens, UniProt P05177); test: cytochrome inhibition, human liver microsomes; assay type: in vitro ADME
T5 construct: phosphate buffer containing human liver microsomes (0.2 mg/ml); from tissue; host or cells: human liver microsomes
Method: as §1

serotonin transporter = target: T6, serotonin transporter (Rattus norvegicus, UniProt P31652); test: uptake inhibition, rat brain synaptosomes; assay type: biochemical; settings: 5 μM
T6 construct: transporters from rat brain synaptosomes; tissue Eurofins (contract assay); host or cells: rat brain synaptosomes
T6 sequence (P31652 whole entry): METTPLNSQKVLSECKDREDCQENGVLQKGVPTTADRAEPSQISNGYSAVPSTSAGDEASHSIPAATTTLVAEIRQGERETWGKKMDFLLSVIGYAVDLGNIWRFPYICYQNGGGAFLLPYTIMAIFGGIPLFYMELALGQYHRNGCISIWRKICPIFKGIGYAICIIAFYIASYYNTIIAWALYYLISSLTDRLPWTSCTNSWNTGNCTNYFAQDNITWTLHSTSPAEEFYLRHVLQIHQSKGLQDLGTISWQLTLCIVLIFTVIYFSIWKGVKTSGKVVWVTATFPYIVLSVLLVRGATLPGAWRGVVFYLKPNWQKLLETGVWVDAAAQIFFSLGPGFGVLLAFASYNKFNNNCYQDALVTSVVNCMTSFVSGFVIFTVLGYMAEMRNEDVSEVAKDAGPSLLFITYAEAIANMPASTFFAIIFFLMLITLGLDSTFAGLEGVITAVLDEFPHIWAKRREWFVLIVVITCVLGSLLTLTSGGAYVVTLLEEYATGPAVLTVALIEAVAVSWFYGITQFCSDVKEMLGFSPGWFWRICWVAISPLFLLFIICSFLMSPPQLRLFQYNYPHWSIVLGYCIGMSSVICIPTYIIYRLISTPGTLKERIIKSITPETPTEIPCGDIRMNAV
Method: (§2) In vitro profiling of LIT-001 was performed by Eurofins as described in the Eurofins SafetyScreen-Functional panel, 2018[31]. The hepatotoxicity of LIT-001 was studied with cryo-preserved mouse hepatocytes. After unfreezing (optiTHAW and optiINCUBATE media, Xenotech) and cell viability control, cells (2 × 10^6 cells/ml) were dispatched in 96 well microtiterplates. LIT-001 was added to reach a concentration 1 μM in the presence of 1 × 10^6 cells/mL in a volume of 100 μl/well. The incubation was stopped at 4, 20, 40, 80 and 120 min in adding 100 μl of acetonitrile at 0 °C. A positive control was treated in the same conditions. All samples were analyzed by UHPLC coupled to a mass spectrometer (Shimadzu LC-MS 8030).

[1] = target: T7, noradrenaline transporter (Rattus norvegicus, UniProt Q63380); test: uptake inhibition, rat brain synaptosomes; assay type: biochemical; settings: 5 μM
T7 construct: transporters from rat brain synaptosomes; tissue Eurofins (contract assay); host or cells: rat brain synaptosomes
T7 sequence (Q63380 1-617): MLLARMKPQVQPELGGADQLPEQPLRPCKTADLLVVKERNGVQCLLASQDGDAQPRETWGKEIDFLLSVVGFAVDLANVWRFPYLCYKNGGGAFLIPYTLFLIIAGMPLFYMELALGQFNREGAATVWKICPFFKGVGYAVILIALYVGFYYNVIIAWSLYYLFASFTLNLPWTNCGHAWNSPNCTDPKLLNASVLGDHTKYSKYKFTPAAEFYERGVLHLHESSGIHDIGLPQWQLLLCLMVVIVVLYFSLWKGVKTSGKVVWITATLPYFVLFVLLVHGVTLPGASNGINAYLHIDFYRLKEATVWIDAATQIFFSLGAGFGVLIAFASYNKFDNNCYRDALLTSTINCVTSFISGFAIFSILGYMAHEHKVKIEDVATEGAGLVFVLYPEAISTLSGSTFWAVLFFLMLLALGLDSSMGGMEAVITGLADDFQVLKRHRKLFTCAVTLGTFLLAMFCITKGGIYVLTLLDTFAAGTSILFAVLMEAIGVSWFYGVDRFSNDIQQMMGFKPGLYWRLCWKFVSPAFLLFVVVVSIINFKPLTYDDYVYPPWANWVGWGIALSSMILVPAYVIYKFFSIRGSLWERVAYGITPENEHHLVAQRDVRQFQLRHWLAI
Method: as §2

dopamine transporter = target: T8, dopamine transporter (Rattus norvegicus, UniProt P23977); test: uptake inhibition, rat brain synaptosomes; assay type: biochemical; settings: 5 μM
T8 construct: transporters from rat brain synaptosomes; tissue Eurofins (contract assay); host or cells: rat brain synaptosomes
Method: as §2

[2] = target: T9, GABAA (alpha1/beta2/gamma2) (Homo sapiens, UniProt P14867+P18507+P47870); test: ion channel blockade panel; assay type: cell-based; settings: 5 μM
T9 construct: Eurofins (contract assay)
Method: as §2

Vav1.5 sodium channel = target: T10, Vav1.5 sodium channel (Homo sapiens, UniProt Q14524); test: ion channel blockade panel; assay type: cell-based; settings: 5 μM
T10 construct: Eurofins (contract assay)
T10 sequence (Q14524 whole entry): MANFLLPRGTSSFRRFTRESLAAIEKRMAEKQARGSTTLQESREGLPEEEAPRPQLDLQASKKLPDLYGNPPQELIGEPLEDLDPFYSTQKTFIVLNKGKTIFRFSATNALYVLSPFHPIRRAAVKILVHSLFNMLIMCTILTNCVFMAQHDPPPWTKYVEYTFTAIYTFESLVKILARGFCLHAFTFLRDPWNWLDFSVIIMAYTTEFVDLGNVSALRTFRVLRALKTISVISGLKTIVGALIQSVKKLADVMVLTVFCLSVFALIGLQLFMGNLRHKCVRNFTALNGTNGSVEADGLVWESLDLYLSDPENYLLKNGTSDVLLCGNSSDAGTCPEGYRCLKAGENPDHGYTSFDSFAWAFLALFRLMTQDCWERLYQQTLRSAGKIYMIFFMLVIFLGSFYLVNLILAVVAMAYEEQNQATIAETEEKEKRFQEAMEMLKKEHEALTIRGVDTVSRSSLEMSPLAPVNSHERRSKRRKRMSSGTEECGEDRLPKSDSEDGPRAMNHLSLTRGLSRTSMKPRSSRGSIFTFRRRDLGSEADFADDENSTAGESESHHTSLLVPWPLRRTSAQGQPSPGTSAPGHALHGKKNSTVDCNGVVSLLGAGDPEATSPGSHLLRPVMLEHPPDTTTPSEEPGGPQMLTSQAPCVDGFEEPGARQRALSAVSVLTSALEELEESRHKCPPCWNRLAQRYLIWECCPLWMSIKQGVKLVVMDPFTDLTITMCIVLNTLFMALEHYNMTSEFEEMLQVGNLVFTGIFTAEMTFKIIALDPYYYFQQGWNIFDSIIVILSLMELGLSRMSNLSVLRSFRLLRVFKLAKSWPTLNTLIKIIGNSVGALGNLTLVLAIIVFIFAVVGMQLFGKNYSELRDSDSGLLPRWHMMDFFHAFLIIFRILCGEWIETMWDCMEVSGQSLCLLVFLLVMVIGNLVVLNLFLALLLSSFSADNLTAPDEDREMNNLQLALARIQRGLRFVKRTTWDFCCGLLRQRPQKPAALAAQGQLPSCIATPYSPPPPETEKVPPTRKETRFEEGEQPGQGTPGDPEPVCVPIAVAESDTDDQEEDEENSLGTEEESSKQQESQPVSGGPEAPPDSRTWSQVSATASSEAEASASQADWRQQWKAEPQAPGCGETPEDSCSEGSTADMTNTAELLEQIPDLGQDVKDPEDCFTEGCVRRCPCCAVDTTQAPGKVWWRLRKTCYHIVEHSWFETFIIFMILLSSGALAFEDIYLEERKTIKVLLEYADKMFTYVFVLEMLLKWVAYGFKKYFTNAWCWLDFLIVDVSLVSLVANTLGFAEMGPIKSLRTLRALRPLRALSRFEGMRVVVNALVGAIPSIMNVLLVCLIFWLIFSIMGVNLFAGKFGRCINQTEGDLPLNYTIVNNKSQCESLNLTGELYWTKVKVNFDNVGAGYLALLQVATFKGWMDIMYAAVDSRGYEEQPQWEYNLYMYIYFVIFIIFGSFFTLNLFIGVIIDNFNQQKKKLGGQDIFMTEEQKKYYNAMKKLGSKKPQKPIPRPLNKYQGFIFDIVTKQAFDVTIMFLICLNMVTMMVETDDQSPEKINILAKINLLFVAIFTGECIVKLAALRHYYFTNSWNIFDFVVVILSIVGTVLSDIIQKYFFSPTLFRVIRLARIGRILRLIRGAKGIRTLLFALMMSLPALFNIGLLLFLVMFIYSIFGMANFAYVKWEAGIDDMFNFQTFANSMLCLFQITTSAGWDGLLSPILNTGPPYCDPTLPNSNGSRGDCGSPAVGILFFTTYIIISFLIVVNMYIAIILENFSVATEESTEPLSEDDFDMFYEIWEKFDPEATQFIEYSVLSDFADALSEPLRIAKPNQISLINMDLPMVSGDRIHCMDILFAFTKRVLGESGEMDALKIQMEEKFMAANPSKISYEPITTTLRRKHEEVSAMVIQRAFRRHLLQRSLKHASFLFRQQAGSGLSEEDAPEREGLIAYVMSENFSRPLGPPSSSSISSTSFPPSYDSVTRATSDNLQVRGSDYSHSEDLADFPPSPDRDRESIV
Method: as §2

[3] = target: T11, human hERG potassium channel (Homo sapiens, UniProt Q12809); test: ion channel blockade panel; assay type: cell-based; settings: 5 μM
T11 construct: Eurofins (contract assay)
Method: as §2

nAChR (alpha4/beta2) = target: T12, nAChR (alpha4/beta2) (Homo sapiens, UniProt P17787+P43681); test: ion channel blockade panel; assay type: cell-based; settings: 5 μM
T12 construct: Eurofins (contract assay)
Method: as §2

24 off-target GPCRs = test: Eurofins SafetyScreen functional panel, GPCR agonist and antagonist profile; assay type: cell-based; settings: 5 μM, 24 GPCRs
Method: as §2

[4] = tested on: CFA-induced thermal heat hyperalgesia; test: thermal heat sensitivity, Plantar test (Hargreaves), CFA model; assay type: in vivo; settings: rat
Method: LIT-001 was prepared as described in Frantz et al.[20]. For in vivo biological assays, it was dissolved in carboxymethyl cellulose (CMC, 1%) - NaCl (0.9%) and administered at the dose of 10 mg/kg. LIT-001 or vehicle were injected intraperitoneally (i.p.), in a volume of 10 ml/kg[20], 24 h after the induction of the CFA-induced painful inflammatory sensitization. To confirm the implication of the OTR we injected (i.p.) also L-368,899 (Sigma, St. Louis, MO) (1 mg/kg), an OTR antagonist, in combination with LIT-001 in another group of rats[11].
Male Wistar rats (300 g; JANVIER LABS, Le Genest St. Isle, France) were used for this study. They were housed by groups of 3 or 4 under standard conditions (room temperature, 22 °C; 12/12 h light/dark cycle) with ad libitum access to food and water and behavioral enrichment. All animals were manipulated and habituated to the tests and to the room for at least 2 weeks. All behavioral tests were done during the light period (i.e., between 7:00 and 19:00). All the procedures were performed in accordance with European committee council Direction, authorization from French Department of Agriculture and from the regional ethic committee.
To test the animal heat sensitivity, we used the Plantar test with Hargreaves method (Ugo Basile, Comerio, Italy) to compare the response of each hindpaw[33] when we tested healthy animals (unilateral intraplantar NaCl injection) and animals having received unilateral intraplantar CFA (Freund’s Complete Adjuvant) injection. The habituated rat is placed in a small box and we wait until the animal is calmed then we exposed the hindpaw to a radiant heat, the latency time of paw withdrawal was measured.
In order to induce a peripheral inflammation, 100 μl of complete Freund adjuvant (CFA; Sigma, St. Louis, MO), was injected in the right hindpaw of the rat. All CFA injections were performed under light isoflurane anesthesia (3%).

[5] = i.p., D1 after CFA, measured 1 hour after injection

T1 sequence (P10635 whole entry): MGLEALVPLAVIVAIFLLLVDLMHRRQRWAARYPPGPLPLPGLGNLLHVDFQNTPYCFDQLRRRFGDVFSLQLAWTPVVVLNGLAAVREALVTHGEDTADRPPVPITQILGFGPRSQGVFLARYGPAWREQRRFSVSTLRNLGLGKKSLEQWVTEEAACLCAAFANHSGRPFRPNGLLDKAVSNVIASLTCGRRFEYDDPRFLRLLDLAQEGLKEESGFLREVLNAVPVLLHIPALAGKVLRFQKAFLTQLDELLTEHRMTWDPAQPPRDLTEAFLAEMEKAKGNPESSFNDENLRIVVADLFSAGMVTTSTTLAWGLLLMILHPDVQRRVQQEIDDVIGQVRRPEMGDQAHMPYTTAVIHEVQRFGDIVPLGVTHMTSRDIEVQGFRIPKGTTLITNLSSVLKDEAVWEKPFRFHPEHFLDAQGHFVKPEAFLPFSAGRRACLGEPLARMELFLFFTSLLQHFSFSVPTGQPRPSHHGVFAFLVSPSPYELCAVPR

For `Cc1cc(C(=O)N2Cc3cnn(C)c3Nc3ccccc32)ccc1CNC(=O)N1CCC[C@H]1C(=S)N(C)C` [LIT-001], the “interaction with CYP 2D6” value (CYP 2D6) was “did not interact”, the IC50 (CYP 3A4) was 11 µM and the IC50 (CYP 2C19) was 21 µM. The “interaction with CYP 2C9” value (CYP 2C9) was “did not interact”, the IC50 (CYP 1A2) was 51 µM and the serotonin uptake blockade (serotonin transporter) was “no significant uptake blockade”. For the same molecule, the noradrenaline uptake blockade [1] was “no significant uptake blockade”, the dopamine uptake blockade (dopamine transporter) was “no significant uptake blockade” and the “GABAA (alpha1/beta2/gamma2) channel blockade” value [2] was “no significant blockade activity”. The “Vav1.5 sodium channel blockade” value (Vav1.5 sodium channel) was “no significant blockade activity”, the “hERG potassium channel blockade” value [3] was “no significant blockade activity” and the “nAChR (alpha4/beta2) channel blockade” value (nAChR (alpha4/beta2)) was “no significant blockade activity”. For the same molecule, the “agonist or antagonist activity at GPCRs” value (24 off-target GPCRs) was “No significant agonist or antagonist”, the “thermal heat latency, NaCl-injected hindpaw (control animals)” value ([4]; 10 mg/kg i.p.) was 8.14 ± 0.48 s and the “thermal heat latency, hindpaw contralateral to CFA (cCFA)” value ([4]; 10 mg/kg i.p.) was 11 ± 0.53 s. For the same molecule, the “relative-to-baseline AUC, thermal heat latency, CFA-injected hindpaw” value ([4]; i.p. LIT-001 10 mg/kg at D1 after CFA) was 135 ± 9%, the “thermal heat withdrawal latency, CFA-injected hindpaw” value ([4]; i.p. LIT-001 10 mg/kg at D1 after CFA, 3 h post i.p.) was 5.83 ± 0.65 s and the “dose at which analgesic effect reaches a plateau, thermal heat hypersensitivity” value [4, 5] was 10 mg/kg. For the same molecule, the “dose of first analgesic action, thermal heat hypersensitivity” value [4, 5] was 5 mg/kg.
